In PubChem BioAssay AID330 (DTP/NCI, 2004):
Where “and” joins values, the source holds several entries; their conditions need not be identical. Equal values may be shown once. Inconclusive results and toxic doses are left out.

System: P388 leukemia ip, CD2F1 mice, survival T/C
Assay: NCI In Vivo Anticancer Drug Screen. Data for tumor model P388 Leukemia (intraperitoneal) in CD2F1 (CDF1) mice
Details: endpoint: median survival time, higher = longer survival
How it was run: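 Mice carrying the transplanted tumor received test compound or vehicle. Survival was recorded in each group, and the value is the treated-group measurement divided by that of the vehicle-treated control group.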

[1] = dose: 50.0 mg/kg/injection, schedule: Q01DX009 (ip), vehicle: saline with Tween-80
[2] = dose: 100.0 mg/kg/injection, schedule: Q01DX009 (ip), vehicle: saline with Tween-80
[3] = dose: 200.0 mg/kg/injection, schedule: Q01DX009 (ip), vehicle: saline with Tween-80
[4] = dose: 60.0 mg/kg/injection, schedule: Q01DX005 (ip), vehicle: saline with Tween-80
[5] = dose: 120.0 mg/kg/injection, schedule: Q01DX005 (ip), vehicle: saline with Tween-80
[6] = dose: 240.0 mg/kg/injection, schedule: Q01DX005 (ip), vehicle: saline with Tween-80

CCc1c(C(=O)OC)c(C(=O)OC)c(-c2ccc(C)cc2)n1CCn1c(CC)c(C(=O)OC)c(C(=O)OC)c1-c1ccc(C)cc1
T/C (dose: 60.0 mg/kg/injection, schedule: Q01DX005 (ip), vehicle: Klucel (hydroxypropylcellulose) (HPC)): 96 % of control | T/C (dose: 120.0 mg/kg/injection, schedule: Q01DX005 (ip), vehicle: Klucel (hydroxypropylcellulose) (HPC)): 101 % of control | T/C (dose: 240.0 mg/kg/injection, schedule: Q01DX005 (ip), vehicle: Klucel (hydroxypropylcellulose) (HPC)): 92 % of control

CCC(=O)O[C@H]1CC[C@H]2[C@@H]3C[C@H](F)C4=CC(=O)CC[C@]4(C)[C@H]3CC[C@]12C
T/C [1]: 100 % of control | T/C [2]: 100 % of control | T/C [3]: 100 % of control

Cc1ccc2nc3ccccc3cc2c1
T/C (dose: 25.0 mg/kg/injection, schedule: Q04DX003 (ip), vehicle: saline with Tween-80): 104 % of control | T/C (dose: 50.0 mg/kg/injection, schedule: Q04DX003 (ip), vehicle: saline with Tween-80): 100 % of control | T/C (dose: 100.0 mg/kg/injection, schedule: Q04DX003 (ip), vehicle: saline with Tween-80): 95 % of control | T/C (dose: 200.0 mg/kg/injection, schedule: Q04DX003 (ip), vehicle: saline with Tween-80): 99 % of control

O=CC1CCC(c2ccc3ccccc3c2)O1 (stereo unspecified)
T/C [4]: 106 % of control | T/C [5]: 114 % of control | T/C [6]: 114 % of control

CC(=O)C1CC2C=CC1N(C1=CC(=O)CC(C)(C)C1)C2=O (stereo unspecified)
T/C [1]: 108 % of control | T/C [2]: 107 % of control | T/C [3]: 100 % of control

Cc1cnc2ccccc2c1/C=C/c1ccc(N(C)C)cc1
T/C [1]: 124 % of control | T/C [3]: 153 % of control | T/C (dose: 400.0 mg/kg/injection, schedule: Q01DX009 (ip), vehicle: saline with Tween-80): 120 % of control

COc1ccc(CCNc2ccc(OC)c(OC)c2)cc1OC
T/C (dose: 12.5 mg/kg/injection, schedule: Q01DX009 (ip), vehicle: water): 91 % of control | T/C (dose: 25.0 mg/kg/injection, schedule: Q01DX009 (ip), vehicle: water): 98 % of control | T/C (dose: 50.0 mg/kg/injection, schedule: Q01DX009 (ip), vehicle: water): 100 % of control | T/C (dose: 100.0 mg/kg/injection, schedule: Q01DX009 (ip), vehicle: water): 95 % of control | T/C (dose: 200.0 mg/kg/injection, schedule: Q01DX009 (ip), vehicle: water): 90 % of control

Fc1cccc(Cl)c1CSC(=S)N1CCSCC1
T/C [4]: 110 % of control | T/C [5]: 105 % of control | T/C [6]: 96 % of control

COc1cc(NC(C)CCCN)c2ncccc2c1Sc1ccc(Cl)cc1 (stereo unspecified)
T/C (dose: 3.13 mg/kg/injection, schedule: Q01DX009 (ip), vehicle: saline with Tween-80): 89 % of control | T/C (dose: 6.25 mg/kg/injection, schedule: Q01DX009 (ip), vehicle: saline with Tween-80): 94 % of control

O=C1c2ccccc2C(=O)N1CC[P+](Cc1ccccc1)(Cc1ccccc1)Cc1ccccc1
T/C (dose: 0.78 mg/kg/injection, schedule: Q01DX009 (ip), vehicle: other): 105 % of control | T/C (dose: 1.56 mg/kg/injection, schedule: Q01DX009 (ip), vehicle: other): 97 % of control | T/C (dose: 3.13 mg/kg/injection, schedule: Q01DX009 (ip), vehicle: other): 97 % of control | T/C (dose: 6.25 mg/kg/injection, schedule: Q01DX009 (ip), vehicle: other): 106 % of control | T/C (dose: 12.5 mg/kg/injection, schedule: Q01DX009 (ip), vehicle: other): 99 % of control and 90 % of control | T/C (dose: 25.0 mg/kg/injection, schedule: Q01DX009 (ip), vehicle: other): 112 % of control and 91 % of control | T/C (dose: 50.0 mg/kg/injection, schedule: Q01DX009 (ip), vehicle: other): 105 % of control | T/C (dose: 100.0 mg/kg/injection, schedule: Q01DX009 (ip), vehicle: other): 89 % of control

CN(C)[C@@H]1C(=O)C(C(N)=O)=C(O)[C@]2(O)C(=O)C3C(=O)c4c(O)ccc(Cl)c4[C@](C)(O)[C@H]3C[C@@H]12 (stereo partly specified)
T/C (dose: 8.8 mg/kg/injection, schedule: Q01DX009 (ip), vehicle: saline with Tween-80): 109 % of control | T/C (dose: 13.3 mg/kg/injection, schedule: Q01DX009 (ip), vehicle: saline with Tween-80): 100 % of control | T/C (dose: 20.0 mg/kg/injection, schedule: Q01DX009 (ip), vehicle: saline with Tween-80): 109 % of control | T/C (dose: 30.0 mg/kg/injection, schedule: Q01DX009 (ip), vehicle: saline with Tween-80): 118 % of control
